Test results reported in patent publication US7550589B2, “6-(2-alkyl-phenyl)-pyrido[2,3-D]pyrimidines useful as protein kinase inhibitors” (Hoffman-La Roche Inc., priority 2004, dated 2009).
pIC50: −log10 of the molar value.

How the values were obtained:
Lck (p56^lck) = target: T1, Lck (p56^lck) (Homo sapiens, UniProt P06239); test: SRC-Inhibitor-Assay, time-resolved fluorescence kinase assay (Lck); assay type: biochemical; conditions: ATP 5 μM; peptide 10 μM; enzyme 2.5 U/ml; pre-incubated 15 min at 15° C.
T1 construct: purchased UBI, Upstate Biotech, Inc
T1 sequence (P06239 whole entry, species assumed): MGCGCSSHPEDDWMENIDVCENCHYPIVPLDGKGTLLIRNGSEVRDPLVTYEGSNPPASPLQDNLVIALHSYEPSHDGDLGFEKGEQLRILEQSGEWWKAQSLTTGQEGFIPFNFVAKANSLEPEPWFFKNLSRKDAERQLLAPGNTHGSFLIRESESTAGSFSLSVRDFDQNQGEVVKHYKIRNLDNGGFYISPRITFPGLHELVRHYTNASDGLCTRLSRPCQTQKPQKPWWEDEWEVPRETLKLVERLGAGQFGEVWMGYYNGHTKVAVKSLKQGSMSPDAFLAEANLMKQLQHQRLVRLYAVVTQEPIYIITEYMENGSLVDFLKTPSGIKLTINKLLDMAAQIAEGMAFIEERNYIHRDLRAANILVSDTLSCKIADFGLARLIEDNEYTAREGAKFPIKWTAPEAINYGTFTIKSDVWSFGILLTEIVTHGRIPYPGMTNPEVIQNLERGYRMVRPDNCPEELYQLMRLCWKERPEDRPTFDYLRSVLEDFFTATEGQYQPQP
Source text: (§1) The activity of the compounds according to this invention as inhibitors for the src-family tyrosine kinases was shown by using the following assay.
(§2) SRC-Inhibitor-Assay Parameters:
(§3) Eu-labelled Phosphotyrosine Antibody: for Lck Cisbio Mab PT66-K, • for Src EG&G Wallac PT66 Eu-W1024 (all commercially available).
(§4) Peptides: Ro: NH2-A-E-E-E-I-Y-G-E-F-E-A-K-K-K-K-CONH2, and • Ja133-Ro: Ja133-G-Aminocaprylic acid-A-E-E-E-I-Y-G-E-F-E-A-K-K-K-K-CONH2, wherein Ja133 is LightCycler-Red 640-N-hydroxy succinimide ester; • whereby both peptides were synthesized by an optimized solid phase peptide synthesis protocol (Merrifield, Fed. Proc. Fed. Amer. Soc. Exp. Biol. 21 (1962) 412) on a Zinsser SMP350 peptide synthesizer. Shortly, the peptide was assembled on 160 mg (22.8 μmol scale) of a Rink-Linker modified polystyrene solid phase by repeatedly conjugating an twenty fold excess of amino acids each protected by temporary piperidine labile Fmoc- and permanent acid labile tert-Bu—, BOC- and O-tert-Bu-groups depending on the side chain function. The substrate sequence AEEEIYGEFEAKKKK was N-terminal additionally mounted with the spacer amino acids Aminocaprylic acid and Glycin. After cleavage of the N-terminal temporary protecting group the still attached and protected peptide was labeled with a 1.5 fold amount of LightCycler-Red 640-N-hydroxy succinimide ester (purchased from Roche Diagnostics GmbH) and triethylamine. After 3 hrs. the resin was washed with Dimethylformamide and Isopropanol until the eluates of the blue resin got colourless. […] The substrate was finally isolated by a preparative reverse phase HPLC purification. The purification yielded 12.2 mg RP-HPLC single peak pure blue material (lyophilisate). The identity was proven by MALDI mass spectroscopy [2720.0].
(§5) Enzymes: Upstate Lck (p56^lck, active), Upstate Src (p60^c-src, partially purified) were purchased from UBI, Upstate Biotech, Inc.
(§6) Time-resolved Fluorescence Assay: Reader: Perkin Elmer, Wallac Viktor 1420-040 multilabel counter; Liquid handling system: Beckman Coulter, Biomek 2000.
(§7) ATP, Tween™ 20, 4-(2-hydroxyethyl)-1-piperazineethanesulfonic acid (HEPES) were purchased from Roche Molecular Biochemicals, MgCl2 and MnCl2 were purchased from Merck Eurolab, Tris(2-carboxyethyl)phosphine hydrochloride (TCEP) was purchased from Pierce, 384 Well low volume fluorescence plates was purchased from Falcon.
(§8) At first the enzyme is pre-incubated for 15 min. at 15° C. in aqueous solution with corresponding amounts of inhibitors according to this invention. Then the phosphorylation reaction is started by adding a reaction mixture, containing ATP, Peptide and PT66, and subsequent shaking. The proceeding of this reaction is immediately monitored using time resolved fluorescence spectroscopy in a suitable well plate reader.
(§9) The IC50-values can be obtained from the reaction rates by using a non-linear curve fit (XLfit software (ID Business Solution Ltd., Guilford, Surrey, UK))

Src (p60^c-src) = target: T2, Src (p60^c-src) (Homo sapiens, UniProt P12931); test: SRC-Inhibitor-Assay, time-resolved fluorescence kinase assay (Src); assay type: biochemical; conditions: ATP 5 μM; peptide 10 μM; enzyme 2.5 U/ml; pre-incubated 15 min at 15° C.
T2 construct: purchased UBI, Upstate Biotech, Inc
T2 sequence (P12931 whole entry): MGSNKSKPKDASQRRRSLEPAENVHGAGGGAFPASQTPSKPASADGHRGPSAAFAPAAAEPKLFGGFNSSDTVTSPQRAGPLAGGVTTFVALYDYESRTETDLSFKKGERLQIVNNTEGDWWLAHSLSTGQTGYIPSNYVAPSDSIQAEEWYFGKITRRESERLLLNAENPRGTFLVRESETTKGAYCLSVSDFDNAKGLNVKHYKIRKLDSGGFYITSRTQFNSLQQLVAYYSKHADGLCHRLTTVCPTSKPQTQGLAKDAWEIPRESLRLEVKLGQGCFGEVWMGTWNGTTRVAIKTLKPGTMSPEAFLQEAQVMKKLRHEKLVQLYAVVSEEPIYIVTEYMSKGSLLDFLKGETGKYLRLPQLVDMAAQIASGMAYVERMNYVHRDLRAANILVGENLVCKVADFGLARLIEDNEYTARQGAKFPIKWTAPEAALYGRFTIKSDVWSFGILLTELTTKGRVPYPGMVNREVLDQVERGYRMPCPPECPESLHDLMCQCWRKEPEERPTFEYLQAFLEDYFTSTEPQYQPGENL
Source text: as §1, §2, §3, §4, §5, §6, §7, §8, §9

| SMILES | pIC50 (Lck (p56^lck)) | pIC50 (Src (p60^c-src)) |
| --- | --- | --- |
| CC(=O)Nc1cccc(Nc2ncc3cc(-c4ccccc4C)c(C(=O)NC[C@H]4CCCN4)nc3n2)c1 [Example 1, (R)-2-(3-Acetylamino-phenylamino)-6-o-tolyl-pyrido[2,3-d]pyrimidine-7-carboxylic acid (pyrrolidin-2-ylmethyl)-amide] | 8.10 | 9.15 |
| CS(=O)(=O)NCCNC(=O)c1nc2nc(Nc3ccc4c(c3)S(=O)(=O)CCO4)ncc2cc1-c1ccccc1C(F)(F)F [Example 2, 2-(4,4-Dioxo-3,4-dihydro-2H-4lambda*6*-benzo[1,4]oxathiin-6-ylamino)-6-(2-trifluoromethyl-phenyl)-pyrido[2,3-d]pyrimidine-7-carboxylic acid (2-methanesulfonylamino-ethyl)-amide] | 7.30 to 7.70 | 7.30 to 8.30 |
| CC(=O)Nc1cccc(Nc2ncc3cc(-c4ccccc4C)c(C(=O)NCCNS(C)(=O)=O)nc3n2)c1 [Example 3, 2-(3-Acetylamino-phenylamino)-6-o-tolyl-pyrido[2,3-d]pyrimidine-7-carboxylic acid (2-methanesulfonylamino-ethyl)-amide] | 7.93 | 9.00 |
| Cc1ccccc1-c1cc2cnc(Nc3ccc(N4CCOCC4)cc3)nc2nc1C(=O)NCCNS(C)(=O)=O [Example 5, 2-(4-Morpholin-4-yl-phenylamino)-6-o-tolyl-pyrido[2,3-d]pyrimidine-7-carboxylic acid (2-methanesulfonylamino-ethyl)-amide] | 7.70 to 9.00 | 8.30 to 9.30 |
| Cc1ccccc1-c1cc2cnc(Nc3ccc(N4CCOCC4)cc3)nc2nc1C(=O)NC[C@H]1CCCN1 [Example 7, (R)-2-(4-Morpholin-4-yl-phenylamino)-6-o-tolyl-pyrido[2,3-d]pyrimidine-7-carboxylic acid (pyrrolidin-2-ylmethyl)-amide] | 7.70 to 9.00 | 8.30 to 9.30 |
| CNCCNC(=O)c1nc2nc(Nc3cccc(NC(C)=O)c3)ncc2cc1-c1ccccc1C [Example 8, 2-(3-Acetylamino-phenylamino)-6-o-tolyl-pyrido[2,3-d]pyrimidine-7-carboxylic acid (2-methylamino-ethyl)-amide] | 7.70 to 9.00 | 8.30 to 9.30 |
| CNCCNC(=O)c1nc2nc(Nc3cccc(NS(C)(=O)=O)c3)ncc2cc1-c1ccccc1C [Example 9, 2-(3-Methanesulfonylamino-phenylamino)-6-o-tolyl-pyrido[2,3-d]pyrimidine-7-carboxylic acid (2-methylamino-ethyl)-amide] | 7.70 to 9.00 | 8.30 to 9.30 |
| CS(=O)(=O)NCCNC(=O)c1nc2nc(Nc3ccc(N4CCOCC4)cc3)ncc2cc1-c1ccccc1C(F)(F)F [Example 11, 2-(4-Morpholin-4-yl-phenylamino)-6-(2-trifluoromethyl-phenyl)-pyrido[2,3-d]pyrimidine-7-carboxylic acid (2-methanesulfonylamino-ethyl)-amide] | 7.70 to 9.00 | 8.30 to 9.30 |
| O=C(NC[C@H]1CCCN1)c1nc2nc(Nc3ccc(N4CCOCC4)cc3)ncc2cc1-c1ccccc1C(F)(F)F [Example 14, (R)-2-(4-Morpholin-4-yl-phenylamino)-6-(2-trifluoromethyl-phenyl)-pyrido[2,3-d]pyrimidine-7-carboxylic acid (pyrrolidin-2-ylmethyl)-amide] | 7.70 to 9.00 | 8.30 to 9.30 |
| CC(=O)Nc1cccc(Nc2ncc3cc(-c4ccccc4C(F)(F)F)c(C(=O)NC[C@H]4CCCN4)nc3n2)c1 [Example 15, (R)-2-(3-Acetylamino-phenylamino)-6-(2-trifluoromethyl-phenyl)-pyrido[2,3-d]pyrimidine-7-carboxylic acid (pyrrolidin-2-ylmethyl)-amide] | 7.70 to 9.00 | 8.30 to 9.30 |
| O=C(NC[C@H]1CCCN1)c1nc2nc(Nc3ccc4c(c3)S(=O)(=O)CCO4)ncc2cc1-c1ccccc1C(F)(F)F [Example 17, (R)-2-(4,4-Dioxo-3,4-dihydro-2H-4lambda*6*-benzo[1,4]oxathiin-6-ylamino)-6-(2-trifluoromethyl-phenyl)-pyrido[2,3-d]pyrimidine-7-carboxylic acid (pyrrolidin-2-ylmethyl)-amide] | 7.30 to 7.70 | 7.30 to 8.30 |
